# Data: patent US8367620B2, “Peptidic growth hormone secretagogues analog compounds and preparations thereof” (Centro de Ingenieria Genetica y Biotecnologia, priority 2006, dated 2013)
# Legend:
# PC12 cells = format: cell-based; settings: differentiated PC12 cells, 72 h incubation, MTT; read-out: IC50 during the NGF deprivation induced neuronal death
# Description: PC12 cells were stored in 75 cm^2 culture flasks on DMEM containing 5% bovine foetal serum and 10% horse serum, with 50 μg/ml gentamicin. Cells were incubated at 37° C. in 5% CO2. To induce differentiation cells were transferred at a density of 1×10^4 to polylysine covered 96 well plates in NGF supplemented DMEM media for 7 days, with medium replacement every 2-3 days. After differentiation cells were incubated with peptidic GHS analog compounds, at different concentrations for 72 h. Cell survival and proliferation was determined using the Promega non-radioactive cytotoxicity proliferation assay, Cell Titer 96, based in the conversion of 3-(4,5-dimethylthiazole-2-yl)-2,5-diphenyltetrazolium bromide (MTT) in to a spectrophotometrically detectable product. After deprivation of NGF medium is removed and 15 μl of the DMEM dissolved dye is added, after 4 hours of 37° C. incubation 100 μl of the stopping solution is added and absorbance is measured at 570 nm
# [1] = tested on: primary cultures of granular cerebellum cells; format: cell-based, Wistar rats; settings: 500 μM hydrogen peroxide, rat cerebellum granular cells; read-out: IC50 during the induced neuronal damage by Hydrogen Peroxide addition to a primary culture of neurons
# Description: Primary cultures of granular cerebellum cells were obtained from 7-9 days Wistar rats. After a rapid dissection, rat cerebellums were submerged in a cold solution and meningeal membranes were removed, each organ was transferred to a 2-3 ml fresh medium solution and finely sliced. Cells were dissociated using a Pasteur pipette and filtered through a nylon […] membrane (Falcon, Franklin Lakes, N.J.). The number of viable cells was determined by cell counting in a hematocytometer with tripan blue as a marker. Cells were cultured on polylysine covered 96 well plates at a density of 6250 cells in […] final volume. Cultures were kept at 37° C. in 5%. CO2 after 24 h, 10 μM of cytosine arabinofuranose (AraC; Sigma) was added to inhibit the proliferation of non-neuronal cells. The capacity of neural damage prevention was tested adding 500 μM hydrogen peroxide in different concentrations of peptidic GHS analog compounds, Cell survival was determined using the Promega non-radioactive cytotoxicity proliferation assay, Cell Titer 96 (Promega).
# IGF-I mRNA = IGF-I mRNA in liver and GH level of intraperitoneally injected tilapias; format: in vivo, tilapia; settings: liver of intraperitoneally injected tilapias
# Description: IGF-I mRNa was determined in the liver of intraperitoneally injected tilapias monitoring also the GH level time course, showing the peptidic GHS analog compounds as able to stimulate in fish the GH levels in the bloodstream and at incrementing the IGF-I mRNA levels after the injection of the compounds as shown in table 4.
# tilapias = assay: Growth acceleration on juvenile tilapias treated intraperitoneally; format: in vivo; settings: juvenile tilapia, ip 0.1 μg/g twice a week, three weeks
# Description: The compounds were dissolved in a sodium phosphate (PBS) buffer solution and injected twice a week, during three weeks at 0.1 μg/g of humid fish weight (gbw). Compounds were applied individually to a group of 10 male tilapias with an average weight of 60.41±10.36 g and a control group with an average weight of 60.58±19.67 g was receiving PBS only as a control, measuring the average weight every week, all animals in the experiment were labelled with microchips (Stoelting Co. Wood Dale, USA.). for proper identification.
# [2] = tested on: tilapia Oreochromis sp. larvae; assay: Growth stimulation of tilapia larvae by immersion; format: in vivo; settings: immersion 100 μg/L, one hour twice a week, three weeks
# Description: (§1) Growth stimulation experiments on tilapia Oreochromis sp. larvae were performed evaluating groups of 100 larvae with 0.01 g average, using the peptidic GHS analogs, in a 100 μg/L concentration, twice a week using an immersion time of one hour.
# lysozyme = assay: Lysozyme levels in tilapia larvae treated by immersion; format: in vivo, Oreochromis sp.; settings: immersion 100 μg/L
# Description: as §1
# During this experiment lysozyme levels were also monitored and an increase of this immunity marker was obtained in the treated animals as shown in table 8.
# Litopenaeus vanamei = assay: Growing of shrimp larvae by dipping in solution of the compounds; format: in vivo; settings: four dips of one hour every three days, 0.1 g/L
# Description: Shrimp larvae were subjected two four dips, for one hour every three days with different peptidic GHS analogs at 0.1 g/L. The control group was subjected to the same frequency of dipping with 1 mg/L BSA.
# [3] = tested on: Post-larvae of Litopenaeus vanamei; assay: Growth stimulation in shrimps by dietary supplementation; format: in vivo; settings: compound at 1% in post-larvae crustacean diet
# Description: The peptidic GHS analogs were included at 1% in a post-larvae crustacean diet. Post-larvae of Litopenaeus vanamei were fed with the aforementioned diet in parallel with a control group with 1% BSA addition. The effect was measured with an optical micrometer and weighing the animals in a 0.1 mg precision scale.
# [4] = tested on: Litopenaeus vanamei post-larvae; assay: Growth of shrimp post-larvae fed Artemia-bioencapsulated compounds; format: in vivo; settings: Artemia bioencapsulated (10 mh/L, one hour), fed four times a day for one month
# Description: The peptidic GHS analogs were bioencapsulated in Artemia to be fed to Litopenaeus vanamei post-larvae. For the encapsulation the compounds were added in a 10 mh/L left for an hour, harvested and washed. The animals were fed four times a day for one month while the control group was fed with BSA encapsulated Artemia The effect was measured with an optical micrometer and weighing the animals in a 0.1 mg precision scale.
Sequence,IC50 (PC12 cells) [µM],IC50 [1] [µM],Normalized IGF-I mRNA levels to a non related synthetic peptide control group (IGF-I mRNA),"Weight Inc. (%), control group growing = 100% (tilapias) [%]","Weight Inc. (%), control group growing = 100% [2] [%]",Lysozyme levels of the treated animals relative to the control group (lysozyme),"Size Inc. (%), control group growing = 100% (Litopenaeus vanamei) [%]","Weight Inc. (%), control group growing = 100% (Litopenaeus vanamei) [%]","Size Inc. (%), control group growing = 100% [3] [%]","Size Inc. (%), control group growing = 100% [4] [%]"
"GLEFKLLHQ [Compound A238, L-amino acid peptide with internal side-chain cycle, SEC; ID NO: 18]",2.04,1,1.24,129.4,112.6,1.33,117.9,129.2,130.1,140.0
"GMEAGIKLCHRQ [Compound A235, L-amino acid peptide with internal side-chain cycle, SEC; ID NO: 15]",2.05,1.01,0.9,89.9,90.0,1.90,112.5,121.0,137.0,134.2
"HAKPGGIDPEQ [Compound A229, L-amino acid peptide with internal side-chain cycle, SEC; ID NO: 9]",3.41,1.33,1.09,126.5,125.0,1.15,115.9,126.1,140.0,140.0
"HCKFDLDWH [Compound A223, L-amino acid peptide with internal side-chain cycle, SEC; ID NO: 3]",3.12,2.47,1.40,105.0,102.0,1.52,110.9,120.0,131.6,132.0
"HGSKFDLEFG [Compound A222, L-amino acid peptide with internal side-chain cycle, SEC; ID NO: 2]",2.03,1.3,1.115,96.2,96.0,1.43,112.2,121.0,131.0,130.3
HKGIDSPEQH [Compound A232],4.89,3.28,1.23,160.1,148.3,2.41,123.0,132.8,139.7,139.6
